In US8158647B2, “Substituted pyrrolopyridines and pyrazolopyridines as kinase modulators” (SGX Pharmaceuticals, Inc., priority 2007, dated 2012):

How the values were obtained:
[1] = target: T1, purified and unphosphorylated T315I Abl kinase domain (ABL_T315I_0P) (Mus musculus, UniProt P00520, T315I); assay: c-Abl T315I (unphosphorylated kinase domain) pyruvate kinase/lactate dehydrogenase coupled enzyme assay; type: biochemical; details: 10 μM ATP
T1 construct: The c-Abl T3151 KD (kinase domain) was purified as follows; Met-Ser-Leu (vector-derived residues) (N); made in house; host or cells: E. coli BL21(DE3) strains (Codon+RIL, or pSA0145 for the lambda phosphatase co-expression plasmid)
T1 sequence (P00520 242-493 T315I limits assumed): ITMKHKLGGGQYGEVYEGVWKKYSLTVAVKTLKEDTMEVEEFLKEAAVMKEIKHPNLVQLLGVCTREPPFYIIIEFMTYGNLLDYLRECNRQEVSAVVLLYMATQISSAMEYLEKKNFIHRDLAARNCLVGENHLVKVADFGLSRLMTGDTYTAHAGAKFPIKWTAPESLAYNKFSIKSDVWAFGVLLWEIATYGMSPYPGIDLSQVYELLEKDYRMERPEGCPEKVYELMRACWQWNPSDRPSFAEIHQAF
Description: Although the first of these examples uses the kinase domain of a mutant form of Abl T315I (“Abl T315I KD”), the kinase assays may use various forms of mutant and wild type enzymes, including, for example, the entire protein, the kinase domain, or a portion thereof (e.g. Abl Y393F). The kinases used in the assays may also be of varying phosphorylation states. In the c-Abl example, a mutant kinase at a zero phosphorylation state was used.
c-Abl Pyruvate Kinase/Lactate Dehydrogenase Coupled Enzyme Assay
In the c-Abl Pyruvate Kinase (PK)/Lactate Dehydrogenase (LDH) Coupled Assay the protein kinase dependant phosphorylation of a substrate peptide was coupled to the oxidation of NADH. The oxidation of NADH to NAD+ was detected by monitoring a decrease in absorbance at 340 nm.
Materials: Abl substrate peptide=EAIYAAPFAKKK-OH (SEQ ID NO: 1) (Biopeptide, San Diego, Calif.); […]NADH (Sigma Cat#N-8129, FW=709.4); 2M MgCl2; 1M HEPES buffer, pH 7.5; Phosphoenolpyruvate (PEP) (Sigma Cat#P-7002, FW=234); Lactate dehydrogenase (LDH) (Worthington Biochemical Cat#2756); Pyruvate Kinase (PK) (Sigma Cat#P-9136); ATP (Sigma Cat#A-3377, FW=551); Greiner 384-well UV star plate; and purified and unphosphorylated T3151 Abl kinase domain.
Stock Solutions: 10 mM NADH (7.09 mg/ml in miliQH2O) made fresh daily; 10 mM Abl substrate peptide (13.4 mg/ml in miliQH2O) stored at −20° C.; 100 mM HEPES buffer, pH 7.5 (5 ml 1M stock+45 ml miliQH2O); 100mM MgCl2 (5 ml 2M MgCl2+95 ml dH2O); 100 mM PEP (23.4 mg/ml in dH2O) stored at −20° C.; 10mM ATP (5.51 mg/ml in dH2O) stored at −20° C. (diluted 50 μl into total of 10 ml miliQH2O daily=50 μM ATP working stock); 1000 U/ml PK (U/mg varies with lot) flash-frozen under liquid N2 and stored at −80° C.; and 1000 U/ml LDH (U/mg varies with lot) flash-frozen under liquid N2 and stored at −80° C.
Standard Assay Setup for 384-well format (50 μl reaction): 300 μM NADH; 10 mM MgCl2; 2 mM PEP; 45 U/ml PK; 60 U/ml LDH; 200 μM Abl substrate peptide; 2.5 μl test compound (in DMSO); 2 μg/ml Abl kinase domain; 10 μM ATP; 100 mM HEPES buffer. Positive controls contained DMSO with no test compound. Negative controls contained 5 μl of 0.5M EDTA (50 mM in the assay). The dephosphorylated form of the c-Abl T315I mutant was used in the biochemical screening assays. The kinase reaction was initiated at time t=0 by the addition of ATP.
Activity was measured by following the time-dependent loss of NADH by absorbance spectroscopy at 340 nm. The linear portion of the resulting progress curve was then analyzed by linear regression to get the activity in absorbance units/time, reported as the slope of that best fit line (moles/unit time can be calculated from using molar extinction coefficient for NADH at 340 nm, 6250M^−1 cm^−1).
Screening data was evaluated using the equation: Z′=1-[3*(σ++σ−)/|μ+−μ−|] (Zhang, et al., 1999 J Biomol Screening 4(2) 67-73), where μ denotes the mean and σ the standard deviation. The subscript designates positive or negative controls. The Z′ score for a robust screening assay should be ≧0.50. The typical threshold=μ+−3*σ+−. Any value that falls below the threshold was designated a “hit”.
Dose response was analyzed using the equation: y=min+{(max−min)/(1+10^[compound]−logIC50)}, where y is the observed initial slope, max=the slope in the absence of inhibitor, min=the slope at infinite inhibitor, and the IC50 is the [compound] that corresponds to ½ the total observed amplitude (Amplitude=max−min).
To measure modulation, activation, or inhibition of Abl KD, a test compound was added to the assay at a range of concentrations. Inhibitors may inhibit Abl KD activity at an IC50 in the micromolar range, the nanomolar range, or, for example, in the subnanomolar range.
An open-reading frame for c-Abl was amplified from a Mus musculus (mouse) cDNA library prepared from freshly harvested mouse liver using a commercially available kit (Invitrogen) by PCR using the following primers: […]
The c-Abl T3151 KD (kinase domain) was purified as follows. […]

[2] = target: T2, ABL P210WT BAF3 cells (Homo sapiens, UniProt P00519); assay: 96-well XTT cell survival assay, BaF3 ABL P210WT; type: cell-based; details: ABL P210 WT, 72 hours, read-out: CELL BIO ABL P210WT BAF3 XTT (IC50)
T2 construct: ABL P210WT BAF3; fused on or other part: P11274 (Breakpoint cluster region protein)
Method: (§1) MV4-11 and THP cells were maintained in Iscove's Modified Dulbecco's Medium supplemented with 10% fetal bovine serum (FBS) and penicillin/streptomycin, Ba/F3 cells were maintained in RPMI 1640 supplemented with 10% FBS, penicillin/streptomycin and 5 ng/ml recombinant mouse IL-3.
(§2) Compounds were tested in the following assays in duplicate.
(§3) 96-well XTT assay: Cells (e.g. BaF3 315I, M3511, or E255K cells) were grown in growth media containing various concentrations of compounds (duplicates) on a 96-well plate for 72 hours at 37° C. The starting cell number was 5000-8000 cells per well and volume was 120 μl. At the end of the 72-hour incubation, 40 μl of XTT labeling mixture (50:1 solution of sodium 3′-[1-(phenylamino-carbonyl)-3,4-tetrazolium]-bis(4-methoxy-6-nitro) benzene sulfonic acid hydrate and Electron-coupling reagent: PMS (N-methyl dibenzopyrazine methyl sulfate) were added to each well of the plate. After an additional 2-6 hours of incubation at 37° C., the absorbance reading at 405 nm with background correction at 650 nm was measured with a spectrophotometer.

[3] = target: T3, ABL T315I BAF3 cells (Homo sapiens, UniProt P00519, T315I, cells depend on it); assay: 96-well XTT cell survival assay, BaF3 ABL T315I; type: cell-based; details: 72 hours, read-out: CELL BIO ABL T315I BAF3 XTT (IC50)
T3 construct: ABL T315I BAF3; fused on or other part: P11274 (Breakpoint cluster region protein)
Method: as §1, §2, §3

ABL_T315I_0P (IC50) [1]	Structure (SMILES)	GI50 [2] [µM]	GI50 [3] [µM]
D (<0.01 μM)	CCN(C)C(=O)c1cc(-c2cnc3[nH]cc(-c4cc(F)ccc4F)c3c2Cl)cnc1N [2-Amino-5-[4-chloro-3-(2,5-difluoro-phenyl)-1H-pyrrolo[2,3-b]pyridin-5-yl]-N-ethyl-N-methyl-nicotinamide]	0.1 to 1	0.1 to 1
D (<0.01 μM)	CN(C)C(=O)c1cc(-c2cnc3[nH]cc(-c4cc(F)ccc4Cl)c3c2Cl)cnc1N [2-Amino-5-[4-chloro-3-(2-chloro-5-fluoro-phenyl)-1H-pyrrolo[2,3-b]pyridin-5-yl]-N,N-dimethyl-nicotinamide]	0.1 to 1	0.1 to 1
D (<0.01 μM)	CN(C)C(=O)c1cc(-c2cnc3[nH]cc(-c4ccccc4F)c3c2Cl)cnc1N [2-Amino-5-[4-chloro-3-(2-fluoro-phenyl)-1H-pyrrolo[2,3-b]pyridin-5-yl]-N,N-dimethyl-nicotinamide]	0.1 to 1	0.1 to 1
D (<0.01 μM)	COc1ccc(C(F)(F)F)cc1-c1c[nH]c2ncc(-c3cnc(N)c(C(=O)N(C)C)c3)c(Cl)c12 [2-Amino-5-[4-chloro-3-(2-methoxy-5-trifluoromethyl-phenyl)-1H-pyrrolo[2,3-b]pyridin-5-yl]-N,N-dimethyl-nicotinamide]	0.1 to 1	0.1 to 1
D (<0.01 μM)	COc1ccccc1-c1c[nH]c2ncc(-c3ccc(N)c(C(=O)N(C)C)c3)c(Cl)c12 [2-Amino-5-[4-chloro-3-(2-methoxy-phenyl)-1H-pyrrolo[2,3-b]pyridin-5-yl]-N,N-dimethyl-benzamide]	< 0.01	< 0.01
D (<0.01 μM)	COc1ccccc1-c1c[nH]c2ncc(-c3cnc(N)c(C(=O)N(C)C)c3)c(Cl)c12 [2-Amino-5-[4-chloro-3-(2-methoxy-phenyl)-1H-pyrrolo[2,3-b]pyridin-5-yl]-N,N-dimethyl-nicotinamide]	< 0.01	< 0.01
D (<0.01 μM)	COc1ncccc1-c1c[nH]c2ncc(-c3cnc(N)c(C(=O)N(C)C)c3)c(Cl)c12 [2-Amino-5-[4-chloro-3-(2-methoxy-pyridin-3-yl)-1H-pyrrolo[2,3-b]pyridin-5-yl]-N,N-dimethyl-nicotinamide]	0.01 to 0.1	0.01 to 0.1
D (<0.01 μM)	CN(C)C(=O)c1cc(-c2cnc3[nH]cc(-c4ccc5c(c4)CC(=O)N5)c3c2Cl)cnc1N [2-Amino-5-[4-chloro-3-(2-oxo-2,3-dihydro-1H-indol-5-yl)-1H-pyrrolo[2,3-b]pyridin-5-yl]-N,N-dimethyl-nicotinamide]	0.1 to 1	> 1
D (<0.01 μM)	CN(C)C(=O)c1cc(-c2cnc3[nH]cc(-c4cccc(F)c4)c3c2Cl)cnc1N [2-Amino-5-[4-chloro-3-(3-fluoro-phenyl)-1H-pyrrolo[2,3-b]pyridin-5-yl]-N,N-dimethyl-nicotinamide]	0.1 to 1	0.1 to 1
D (<0.01 μM)	CCN(C)C(=O)c1cc(-c2cnc3[nH]cc(-c4cccc(F)c4)c3c2Cl)cnc1N [2-Amino-5-[4-chloro-3-(3-fluoro-phenyl)-1H-pyrrolo[2,3-b]pyridin-5-yl]-N-ethyl-N-methyl-nicotinamide]	0.01 to 0.1	0.01 to 0.1
D (<0.01 μM)	COc1cc(F)c(F)cc1-c1c[nH]c2ncc(-c3cnc(N)c(C(=O)N(C)C)c3)c(Cl)c12 [2-Amino-5-[4-chloro-3-(4,5-difluoro-2-methoxy-phenyl)-1H-pyrrolo[2,3-b]pyridin-5-yl]-N,N-dimethyl-nicotinamide]	0.01 to 0.1	0.01 to 0.1
D (<0.01 μM)	COc1cc(Cl)ccc1-c1c[nH]c2ncc(-c3cnc(N)c(C(=O)N(C)C)c3)c(Cl)c12 [2-Amino-5-[4-chloro-3-(4-chloro-2-methoxy-phenyl)-1H-pyrrolo[2,3-b]pyridin-5-yl]-N,N-dimethyl-nicotinamide]	0.01 to 0.1	0.01 to 0.1
D (<0.01 μM)	COc1cc(F)ccc1-c1c[nH]c2ncc(-c3cnc(N)c(C(=O)N(C)C)c3)c(Cl)c12 [2-Amino-5-[4-chloro-3-(4-fluoro-2-methoxy-phenyl)-1H-pyrrolo[2,3-b]pyridin-5-yl]-N,N-dimethyl-nicotinamide]	0.01 to 0.1	0.01 to 0.1
D (<0.01 μM)	COc1ccc(F)cc1-c1c[nH]c2ncc(-c3cnc(N)c(C(=O)N(C)C)c3)c(Cl)c12 [2-Amino-5-[4-chloro-3-(5-fluoro-2-methoxy-phenyl)-1H-pyrrolo[2,3-b]pyridin-5-yl]-N,N-dimethyl-nicotinamide]	< 0.01	< 0.01
D (<0.01 μM)	COc1ccccc1-c1c[nH]c2ncc(-c3cncc(C(O)C(=O)N(C)C)c3)c(C)c12 (stereo not drawn) [2-Hydroxy-2-{5-[3-(2-methoxy-phenyl)-4-methyl-1H-pyrrolo[2,3-b]pyridin-5-yl]-pyridin-3-yl}-N,N-dimethyl-acetamide]	0.01 to 0.1	0.01 to 0.1
